In patent US20250034210A1, “DLL3 TARGETING PEPTIDES AND CONSTRUCTS THEREOF” (MARIANA ONCOLOGY INC., priority 2023, published 2025):
*1 amine or outer side, *2 acyl side, *3 side chain or, on linkers, in order; H or OH if unused. Where a SMILES comes first, the peptide text is derived from it. Bridges are numbered along the chain shown (N, C = ends). [ ]: non-standard residue; d: D form. The star is where a group is joined. ξ: configuration not given here. DOTA = O=C(O)CN1CCN(CC(=O)O)CCN(CC(=O)*)CCN(CC(=O)O)CC1; Trp(5-F) = N[C@@H](Cc1c[nH]c2ccc(F)cc12)C(=O)O; Phe(2-CF3) = N[C@@H](Cc1ccccc1C(F)(F)F)C(=O)O; d(γGlu) = O=C(O)[C@@H](CCC(=O)[*:2])N[*:1]; Pro(4S-NH2) = N[C@@H]1CN[C@H](C(=O)O)C1; 1Nal = N[C@@H](Cc1cccc2ccccc12)C(=O)O; 2Nal = N[C@@H](Cc1ccc2ccccc2c1)C(=O)O; Hyp = O=C(O)[C@@H]1C[C@@H](O)CN1; ξIle = CC[C@H](C)C(N)C(=O)O; dNle = CCCC[C@@H](N)C(=O)O; Ahx = NCCCCCC(=O)O; ξP = O=C(O)C1CCCN1; Sar = CNCC(=O)O

Target: T1, human DLL3 (Homo sapiens, UniProt Q9NYJ7)
T1 construct: biotin (biotinylated)
T1 sequence (Q9NYJ7 27-618): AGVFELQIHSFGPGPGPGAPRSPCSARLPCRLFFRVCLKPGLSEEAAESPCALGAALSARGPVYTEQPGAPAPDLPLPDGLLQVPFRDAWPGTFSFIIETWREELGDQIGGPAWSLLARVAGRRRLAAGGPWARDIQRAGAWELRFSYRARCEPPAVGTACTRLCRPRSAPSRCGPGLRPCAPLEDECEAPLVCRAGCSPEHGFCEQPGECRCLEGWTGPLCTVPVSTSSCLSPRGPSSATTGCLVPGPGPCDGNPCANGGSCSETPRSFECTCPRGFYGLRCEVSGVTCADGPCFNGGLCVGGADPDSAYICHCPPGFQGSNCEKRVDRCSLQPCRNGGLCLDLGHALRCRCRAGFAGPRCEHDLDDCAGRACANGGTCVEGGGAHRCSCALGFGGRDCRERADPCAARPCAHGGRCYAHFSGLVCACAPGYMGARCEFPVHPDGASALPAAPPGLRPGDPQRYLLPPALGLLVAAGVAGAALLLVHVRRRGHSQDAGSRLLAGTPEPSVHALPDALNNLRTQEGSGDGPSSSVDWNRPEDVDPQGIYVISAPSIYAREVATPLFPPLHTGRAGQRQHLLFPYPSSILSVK
Assay: Affinity determination by Surface Plasmon Resonance (SPR), biotinylated human DLL3 immobilized on streptavidin sensor chip
Conditions: 25° C., Biacore, 1:1 binding model
Method: Affinity Determination by Surface Plasmon Resonance (SPR). SPR studies were performed on the compounds disclosed herein using the following protocol.
The binding affinity and binding kinetic parameters at 25° C. were determined using Biacore S200 or biacore 8K instrument. Biotinylated target ligand human DLL3 was immobilized on a streptavidin sensor chip. A reference surface was set up for nonspecific binding and refractive index changes. For analysis of the kinetics of interactions, varying concentrations of samples were injected at a flow rate of 100 μL/min using running buffer containing 20 mM phosphate buffer with 2.7 mM KCl, 137 mM NaCl, 0.05% Surfactant P20 and 2% DMSO. Sensorgram curves were fitted with 1:1 binding model, and affinity and kinetic parameters were obtained using Biacore Insight evaluation 4.0. software.

Structure (SMILES) | Kd [nM]
CC[C@H](C)[C@H](NC(=O)[C@@H](NC(=O)[C@H](Cc1c[nH]c2ccccc12)NC(=O)CN1CCN(CC(=O)O)CCN(CC(=O)O)CCN(CC(=O)O)CC1)[C@@H](C)O)C(=O)N[C@H]1CSSC[C@@H](C(=O)N[C@@H](Cc2c[nH]c3ccccc23)C(=O)N2CCC[C@H]2C(N)=O)NC(=O)[C@H](CC(=O)O)NC(=O)[C@H](Cc2cnc[nH]2)NC(=O)[C@H](Cc2c[nH]c3ccccc23)NC(=O)[C@H](CC(N)=O)NC(=O)[C@H](CC(N)=O)NC1=O [compound 17, DOTA-W-T-I-C(3)-N-N-W-H-D-C(3)-W-P-CONH2] ({DOTA}-WTICNNWHDCWP-NH2; disulfide 4-10) | 10 to 100
CC[C@H](C)[C@H](NC(=O)[C@@H](NC(=O)[C@H](Cc1c[nH]c2ccccc12)NC(=O)CN(C)C(=O)CN(C)C(=O)CN(C)C(=O)CN(C)C(=O)CN(C)C(=O)CN1CCN(CC(=O)O)CCN(CC(=O)O)CCN(CC(=O)O)CC1)[C@@H](C)O)C(=O)N[C@H]1CSSC[C@@H](C(=O)N[C@@H](Cc2c[nH]c3ccccc23)C(=O)N2CCCC2C(N)=O)NC(=O)[C@H](CC(=O)O)NC(=O)[C@H](Cc2cnc[nH]2)NC(=O)[C@H](Cc2c[nH]c3ccccc23)NC(=O)[C@H](CC(N)=O)NC(=O)[C@H](CC(N)=O)NC1=O (stereo partly drawn) [compound 22, DOTA-(Sar)5-W-T-I-C(3)-N-N-W-H-D-C(3)-W-P-CONH2] ({DOTA}-[Sar][Sar][Sar][Sar][Sar]WTICNNWHDCW[ξP]-NH2; disulfide 9-15) | 1 to 10
C[C@@H](O)[C@H](NC(=O)[C@H](Cc1c[nH]c2ccccc12)NC(=O)CCCCCNC(=O)CN1CCN(CC(=O)O)CCN(CC(=O)O)CCN(CC(=O)O)CC1)C(=O)N[C@@H](Cc1ccccc1C(F)(F)F)C(=O)N[C@H]1CSSC[C@@H](C(=O)N[C@@H](Cc2c[nH]c3ccccc23)C(=O)N2CCC[C@H]2C(N)=O)NC(=O)[C@H](CC(=O)O)NC(=O)[C@H](Cc2cnc[nH]2)NC(=O)[C@H](Cc2c[nH]c3ccccc23)NC(=O)[C@H](CC(N)=O)NC(=O)[C@H](CC(N)=O)NC1=O [compound 65, DOTA-Ahx-W-T-(2CF3-F)-C(3)-N-N-W-H-D-C(3)-W-P-CONH2] ({DOTA-Ahx}-WT[Phe(2-CF3)]CNNWHDCWP-NH2; disulfide 4-10) | 1 to 10
CC[C@H](C)[C@H](NC(=O)[C@@H](NC(=O)[C@H](Cc1c[nH]c2ccccc12)NC(=O)CC[C@@H](NC(=O)CC[C@@H](NC(=O)CC[C@@H](NC(=O)CN1CCN(CC(=O)O)CCN(CC(=O)O)CCN(CC(=O)O)CC1)C(=O)O)C(=O)O)C(=O)O)[C@@H](C)O)C(=O)N[C@H]1CSSC[C@@H](C(=O)N[C@@H](Cc2c[nH]c3ccccc23)C(=O)N2CCC[C@H]2C(=O)O)NC(=O)[C@H](CC(=O)O)NC(=O)[C@H](Cc2c[nH]cn2)NC(=O)[C@H](Cc2c[nH]c3ccccc23)NC(=O)[C@H](CC(N)=O)NC(=O)[C@H](CC(N)=O)NC1=O [compound 221, DOTA-(D-gE)3-W-T-I-C(3)-N-N-W-H-D-C(3)-W-P-CONH2] ({DOTA-d(γGlu)-d(γGlu)-d(γGlu)}-WTICNNWHDCWP-OH; disulfide 4-10) | 10 to 100
CC[C@H](C)[C@H](NC(=O)[C@@H](NC(=O)[C@H](Cc1c[nH]c2ccccc12)NC(=O)[C@@H](CCCCNC(=O)CN1CCN(CC(=O)O)CCN(CC(=O)O)CCN(CC(=O)O)CC1)NC(C)=O)[C@@H](C)O)C(=O)N[C@H]1CSSC[C@@H](C(=O)N[C@@H](Cc2c[nH]c3ccccc23)C(=O)N2CCC[C@H]2C(N)=O)NC(=O)[C@H](CC(=O)O)NC(=O)[C@H](Cc2c[nH]cn2)NC(=O)[C@H](Cc2c[nH]c3ccccc23)NC(=O)[C@H](CC(N)=O)NC(=O)[C@H](CC(N)=O)NC1=O [compound 73, Ac-D-Lys(DOTA)-W-T-I-C(3)-N-N-W-H-D-C(3)-W-P-CONH2] (Ac-[dK](DOTA)WTICNNWHDCWP-NH2; disulfide 5-11) | 10 to 100
CCCC[C@@H](NC(=O)[C@@H]1CCCN1C(=O)[C@H](Cc1c[nH]c2ccccc12)NC(=O)[C@@H]1CSSC[C@H](NC(=O)[C@@H](NC(=O)[C@@H](NC(=O)[C@H](Cc2c[nH]c3ccccc23)NC(=O)CCCCCNC(=O)CN2CCN(CC(=O)O)CCN(CC(=O)O)CCN(CC(=O)O)CC2)[C@@H](C)O)[C@@H](C)CC)C(=O)N[C@@H](CC(N)=O)C(=O)N[C@@H](CC(N)=O)C(=O)N[C@@H](Cc2c[nH]c3ccccc23)C(=O)N[C@@H](Cc2cnc[nH]2)C(=O)N[C@@H](CC(=O)O)C(=O)N1)C(N)=O [compound 163, DOTA-Ahx-W-T-I-C(3)-N-N-W-H-D-C(3)-W-P-(D-Nle)-NH2] ({DOTA-Ahx}-WTICNNWHDCWP[dNle]-NH2; disulfide 4-10) | 1 to 10

The next lines start with the values.

Kd [nM] | Structure (SMILES)
1 to 10 | CC[C@H](C)C(NC(=O)[C@@H](NC(=O)[C@H](Cc1c[nH]c2ccccc12)NC(=O)CCCCCNC(=O)CN1CCN(CC(=O)O)CCN(CC(=O)O)CCN(CC(=O)O)CC1)[C@@H](C)O)C(=O)N[C@H]1CSSC[C@@H](C(=O)N[C@@H](Cc2c[nH]c3ccccc23)C(=O)N2CCC[C@H]2C(N)=O)NC(=O)[C@H](CC(=O)O)NC(=O)[C@H](Cc2cnc[nH]2)NC(=O)[C@H](Cc2ccc3ccccc3c2)NC(=O)[C@H](CC(N)=O)NC(=O)[C@H](CC(N)=O)NC1=O (stereo partly drawn) [compound 57, DOTA-Ahx-W-T-I-C(3)-N-N-(2Nal)-H-D-C(3)-W-P-CONH2] ({DOTA-Ahx}-WT[ξIle]CNN[2Nal]HDCWP-NH2; disulfide 4-10)
10 to 100 | CC[C@H](C)C(NC(=O)[C@@H](NC(=O)[C@H](Cc1c[nH]c2ccccc12)NC(=O)CCCCCNC(=O)CN1CCN(CC(=O)O)CCN(CC(=O)O)CCN(CC(=O)O)CC1)[C@@H](C)O)C(=O)N[C@H]1CSSC[C@@H](C(=O)N[C@@H](Cc2cccc3ccccc23)C(=O)N2CCC[C@H]2C(N)=O)NC(=O)[C@H](CC(=O)O)NC(=O)[C@H](Cc2cnc[nH]2)NC(=O)[C@H](Cc2c[nH]c3ccccc23)NC(=O)[C@H](CC(N)=O)NC(=O)[C@H](CC(N)=O)NC1=O (stereo partly drawn) [compound 54, DOTA-Ahx-W-T-I-C(3)-N-N-W-H-D-C(3)-(1Nal)-P-CONH2] ({DOTA-Ahx}-WT[ξIle]CNNWHDC[1Nal]P-NH2; disulfide 4-10)
10 to 100 | CC[C@H](C)[C@H](NC(=O)[C@@H](NC(=O)[C@H](Cc1c[nH]c2ccccc12)NC(=O)CCCCCNC(=O)CN1CCN(CC(=O)O)CCN(CC(=O)O)CCN(CC(=O)O)CC1)[C@@H](C)O)C(=O)N[C@H]1CSSC[C@@H](C(=O)N[C@@H](Cc2c[nH]c3ccccc23)C(=O)N2C[C@@H](N)C[C@H]2C(N)=O)NC(=O)[C@H](CC(=O)O)NC(=O)[C@H](Cc2cnc[nH]2)NC(=O)[C@H](Cc2c[nH]c3ccccc23)NC(=O)[C@H](CC(N)=O)NC(=O)[C@H](CC(N)=O)NC1=O [compound 225, DOTA-Ahx-W-T-I-C(3)-N-N-W-H-D-C(3)-W-(cis4NH2-P)-CONH2] ({DOTA-Ahx}-WTICNNWHDCW[Pro(4S-NH2)]-NH2; disulfide 4-10)
10 to 100 | CC[C@H](C)C(NC(=O)[C@@H](NC(=O)[C@H](Cc1c[nH]c2ccccc12)NC(=O)CCCCCNC(=O)CN1CCN(CC(=O)O)CCN(CC(=O)O)CCN(CC(=O)O)CC1)[C@@H](C)O)C(=O)N[C@H]1CSSC[C@@H](C(=O)N[C@@H](Cc2c[nH]c3ccccc23)C(=O)N2CCC[C@H]2C(N)=O)NC(=O)[C@H](CC(=O)O)NC(=O)[C@H](Cc2cnc[nH]2)NC(=O)[C@H](Cc2cccc3ccccc23)NC(=O)[C@H](CC(N)=O)NC(=O)[C@H](CC(N)=O)NC1=O (stereo partly drawn) [compound 56, DOTA-Ahx-W-T-I-C(3)-N-N-(1Nal)-H-D-C(3)-W-P-CONH2] ({DOTA-Ahx}-WT[ξIle]CNN[1Nal]HDCWP-NH2; disulfide 4-10)
10 to 100 | CC[C@H](C)[C@H](NC(=O)[C@@H](NC(=O)[C@H](Cc1c[nH]c2ccccc12)NC(=O)CCCCCNC(=O)CN1CCN(CC(=O)O)CCN(CC(=O)O)CCN(CC(=O)O)CC1)[C@@H](C)O)C(=O)N[C@H]1CSSC[C@@H](C(=O)N[C@@H](Cc2c[nH]c3ccccc23)C(=O)N2C[C@H](O)C[C@H]2C(N)=O)NC(=O)[C@H](CC(=O)O)NC(=O)[C@H](Cc2cnc[nH]2)NC(=O)[C@H](Cc2c[nH]c3ccccc23)NC(=O)[C@H](CC(N)=O)NC(=O)[C@H](CC(N)=O)NC1=O [compound 68, DOTA-Ahx-W-T-I-C(3)-N-N-W-H-D-C(3)-W-(trans4OH-P)-CONH2] ({DOTA-Ahx}-WTICNNWHDCW[Hyp]-NH2; disulfide 4-10)
10 to 100 | CC[C@H](C)[C@H](NC(=O)[C@@H](NC(=O)[C@H](Cc1c[nH]c2ccccc12)NC(=O)CCCCCNC(=O)CN1CCN(CC(=O)O)CCN(CC(=O)O)CCN(CC(=O)O)CC1)[C@@H](C)O)C(=O)N[C@H]1CSSC[C@@H](C(=O)N[C@@H](Cc2c[nH]c3ccccc23)C(=O)N2CCC[C@H]2C(N)=O)NC(=O)[C@H](CC(=O)O)NC(=O)[C@H](Cc2cnc[nH]2)NC(=O)[C@H](Cc2c[nH]c3ccc(F)cc23)NC(=O)[C@H](CC(N)=O)NC(=O)[C@H](CC(N)=O)NC1=O [compound 59, DOTA-Ahx-W-T-I-C(3)-N-N-(5Fluoro-W)-H-D-C(3)-W-P-CONH2] ({DOTA-Ahx}-WTICNN[Trp(5-F)]HDCWP-NH2; disulfide 4-10)
